Measured values as given in the supplement of paper PMC10307832.

Columns and labels:
Experiment in all cases: relative viability (nuclei count vs DMSO), 5 days (fraction); higher = more cells survive
NCI-H1666 = tested on: NCI-H1666
Method in brief: (§1)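 Nuclei were stained with Hoechst during a one-step fixation (final 0.05% Triton X-100, 1% formaldehyde, 1 ug/ml Hoechst) carried out 5 days after dosing, then counted on 4× images. The cells, lung cancer lines in 1536-well plates, had been dosed by pin tool the day after seeding with one drug alone or a fixed anchor-drug dose plus five library-drug doses (not always all listed) in √10 steps. Relative viability is the nuclei count in treated wells divided by that in vehicle wells, and each value is the median of duplicate plates.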

NCI-H2170 = tested on: NCI-H2170
Method in brief: as §1

NCI-H1437 = tested on: NCI-H1437
Method in brief: as §1

LK-2 = tested on: LK-2
Method in brief: as §1

BEN = tested on: BEN
Method in brief: as §1

NCI-H1993 = tested on: NCI-H1993
Method in brief: as §1

EKVX = tested on: EKVX
Method in brief: as §1

PC-14 = tested on: PC-14
Method in brief: as §1

SK-MES-1 = tested on: SK-MES-1
Method in brief: as §1

RERF-LC-KJ = tested on: RERF-LC-KJ
Method in brief: as §1

NCI-H661 = tested on: NCI-H661
Method in brief: as §1

NCI-H727 = tested on: NCI-H727
Method in brief: as §1

LCLC-103H = tested on: LCLC-103H
Method in brief: as §1

LOU-NH91 = tested on: LOU-NH91
Method in brief: as §1

ChaGo-K-1 = tested on: ChaGo-K-1
Method in brief: as §1

NCI-H441 = tested on: NCI-H441
Method in brief: as §1

LXF-289 = tested on: LXF-289
Method in brief: as §1

NCI-H1944 = tested on: NCI-H1944
Method in brief: as §1

NCI-H647 = tested on: NCI-H647
Method in brief: as §1

NCI-H2126 = tested on: NCI-H2126
Method in brief: as §1

NCI-H1355 = tested on: NCI-H1355
Method in brief: as §1

HOP-62 = tested on: HOP-62
Method in brief: as §1

HCC-827 = tested on: HCC-827
Method in brief: as §1

SMILES: CCNC(=O)c1noc(-c2cc(C(C)C)c(O)cc2O)c1-c1ccc(CN2CCOCC2)cc1 [Luminespib] + Nc1ncn([C@H]2C[C@H](O)[C@@H](CO)O2)c(=O)n1 [Decitabine] (partner 2 µM)
- relative viability (NCI-H1666; first compound 0.002 µM): 0.701
- relative viability (NCI-H1666; first compound 0.006325 µM): 0.676
- relative viability (NCI-H1666; first compound 0.02 µM): 0.715
- relative viability (NCI-H1666; first compound 0.06325 µM): 0.71
- relative viability (NCI-H1666; first compound 0.2 µM): 0.544
- relative viability (NCI-H2170; first compound 0.002 µM): 0.468
- relative viability (NCI-H2170; first compound 0.006325 µM): 0.456
- relative viability (NCI-H2170; first compound 0.06325 µM): 0.47
- relative viability (NCI-H2170; first compound 0.2 µM): 0.507
- relative viability (NCI-H1437; first compound 0.002 µM): 0.606
- relative viability (NCI-H1437; first compound 0.006325 µM): 0.605
- relative viability (NCI-H1437; first compound 0.02 µM): 0.64
- relative viability (NCI-H1437; first compound 0.06325 µM): 0.428
- relative viability (NCI-H1437; first compound 0.2 µM): 0.229
- relative viability (LK-2; first compound 0.002 µM): 0.32
- relative viability (LK-2; first compound 0.006325 µM): 0.268
- relative viability (LK-2; first compound 0.02 µM): 0.192
- relative viability (LK-2; first compound 0.06325 µM): 0.0898
- relative viability (LK-2; first compound 0.2 µM): 0.0914
- relative viability (BEN; first compound 0.002 µM): 0.84
- relative viability (BEN; first compound 0.006325 µM): 0.644
- relative viability (BEN; first compound 0.02 µM): 0.458
- relative viability (BEN; first compound 0.06325 µM): 0.306
- relative viability (BEN; first compound 0.2 µM): 0.294
- relative viability (NCI-H1993; first compound 0.002 µM): 0.596
- relative viability (NCI-H1993; first compound 0.006325 µM): 0.579
- relative viability (NCI-H1993; first compound 0.02 µM): 0.48
- relative viability (NCI-H1993; first compound 0.06325 µM): 0.573
- relative viability (NCI-H1993; first compound 0.2 µM): 0.371
- relative viability (EKVX; first compound 0.002 µM): 0.38
- relative viability (EKVX; first compound 0.006325 µM): 0.31
- relative viability (EKVX; first compound 0.02 µM): 0.273
- relative viability (EKVX; first compound 0.06325 µM): 0.253
- relative viability (EKVX; first compound 0.2 µM): 0.173
- relative viability (PC-14; first compound 0.002 µM): 0.23
- relative viability (PC-14; first compound 0.006325 µM): 0.21
- relative viability (PC-14; first compound 0.02 µM): 0.123
- relative viability (PC-14; first compound 0.06325 µM): 0.076
- relative viability (PC-14; first compound 0.2 µM): 0.0786
- relative viability (SK-MES-1; first compound 0.002 µM): 0.392
- relative viability (SK-MES-1; first compound 0.006325 µM): 0.385
- relative viability (SK-MES-1; first compound 0.02 µM): 0.213
- relative viability (SK-MES-1; first compound 0.06325 µM): 0.146
- relative viability (SK-MES-1; first compound 0.2 µM): 0.147
- relative viability (RERF-LC-KJ; first compound 0.002 µM): 0.759
- relative viability (RERF-LC-KJ; first compound 0.006325 µM): 0.669
- relative viability (RERF-LC-KJ; first compound 0.02 µM): 0.417
- relative viability (RERF-LC-KJ; first compound 0.06325 µM): 0.225
- relative viability (RERF-LC-KJ; first compound 0.2 µM): 0.198
- relative viability (NCI-H661; first compound 0.002 µM): 0.554
- relative viability (NCI-H661; first compound 0.006325 µM): 0.544
- relative viability (NCI-H661; first compound 0.02 µM): 0.454
- relative viability (NCI-H661; first compound 0.06325 µM): 0.315
- relative viability (NCI-H661; first compound 0.2 µM): 0.309
- relative viability (NCI-H727; first compound 0.002 µM): 0.893
- relative viability (NCI-H727; first compound 0.006325 µM): 0.857
- relative viability (NCI-H727; first compound 0.02 µM): 0.652
- relative viability (NCI-H727; first compound 0.06325 µM): 0.461
- relative viability (NCI-H727; first compound 0.2 µM): 0.368
- relative viability (LCLC-103H; first compound 0.002 µM): 0.732
- relative viability (LCLC-103H; first compound 0.006325 µM): 0.702
- relative viability (LCLC-103H; first compound 0.02 µM): 0.721
- relative viability (LCLC-103H; first compound 0.06325 µM): 0.74
- relative viability (LCLC-103H; first compound 0.2 µM): 0.691
- relative viability (LOU-NH91; first compound 0.002 µM): 0.8
- relative viability (LOU-NH91; first compound 0.006325 µM): 0.844
- relative viability (LOU-NH91; first compound 0.02 µM): 0.686
- relative viability (LOU-NH91; first compound 0.06325 µM): 0.382
- relative viability (LOU-NH91; first compound 0.2 µM): 0.436
- relative viability (ChaGo-K-1; first compound 0.002 µM): 0.544
- relative viability (ChaGo-K-1; first compound 0.006325 µM): 0.492
- relative viability (ChaGo-K-1; first compound 0.02 µM): 0.528
- relative viability (ChaGo-K-1; first compound 0.06325 µM): 0.522
- relative viability (ChaGo-K-1; first compound 0.2 µM): 0.535
- relative viability (NCI-H441; first compound 0.002 µM): 0.255
- relative viability (NCI-H441; first compound 0.006325 µM): 0.26
- relative viability (NCI-H441; first compound 0.02 µM): 0.184
- relative viability (NCI-H441; first compound 0.06325 µM): 0.155
- relative viability (NCI-H441; first compound 0.2 µM): 0.134
- relative viability (LXF-289; first compound 0.002 µM): 0.397
- relative viability (LXF-289; first compound 0.006325 µM): 0.354
- relative viability (LXF-289; first compound 0.02 µM): 0.424
- relative viability (LXF-289; first compound 0.06325 µM): 0.392
- relative viability (LXF-289; first compound 0.2 µM): 0.367
- relative viability (NCI-H1944; first compound 0.002 µM): 0.493
- relative viability (NCI-H1944; first compound 0.006325 µM): 0.454
- relative viability (NCI-H1944; first compound 0.02 µM): 0.405
- relative viability (NCI-H1944; first compound 0.06325 µM): 0.405
- relative viability (NCI-H1944; first compound 0.2 µM): 0.415
- relative viability (NCI-H647; first compound 0.002 µM): 0.391
- relative viability (NCI-H647; first compound 0.006325 µM): 0.484
- relative viability (NCI-H647; first compound 0.02 µM): 0.18
- relative viability (NCI-H647; first compound 0.06325 µM): 0.0995
- relative viability (NCI-H647; first compound 0.2 µM): 0.124
- relative viability (NCI-H2126; first compound 0.002 µM): 0.573
- relative viability (NCI-H2126; first compound 0.006325 µM): 0.587
- relative viability (NCI-H2126; first compound 0.06325 µM): 0.593
- relative viability (NCI-H2126; first compound 0.2 µM): 0.507
- relative viability (NCI-H1355; first compound 0.002 µM): 0.359
- relative viability (NCI-H1355; first compound 0.006325 µM): 0.354
- relative viability (NCI-H1355; first compound 0.02 µM): 0.334
- relative viability (NCI-H1355; first compound 0.06325 µM): 0.346
- relative viability (NCI-H1355; first compound 0.2 µM): 0.243
- relative viability (HOP-62; first compound 0.002 µM): 0.219
- relative viability (HOP-62; first compound 0.006325 µM): 0.297
- relative viability (HOP-62; first compound 0.02 µM): 0.267
- relative viability (HOP-62; first compound 0.06325 µM): 0.223
- relative viability (HOP-62; first compound 0.2 µM): 0.174
- relative viability (HCC-827; first compound 0.002 µM): 0.36
- relative viability (HCC-827; first compound 0.006325 µM): 0.333
- relative viability (HCC-827; first compound 0.02 µM): 0.285
- relative viability (HCC-827; first compound 0.06325 µM): 0.166
- relative viability (HCC-827; first compound 0.2 µM): 0.147
